Patent publication US20180008587A1, “THIOHYDANTOIN ANDROGEN RECEPTOR ANTAGONISTS FOR THE TREATMENT OF CANCER” (Jaressen Pharmaceutica NV, priority 2016, published 2018)
Residue numbers refer to the chain shown, from its start. pEC50: −log10 of the molar value. Where two headings read alike, the source gives them in different places.

Columns and labels:
Type in all cases: cell-based
[1] = molecular target: T1, F876L mutant Androgen Receptor (AR-F876L) (Homo sapiens, UniProt P10275, F877L); experiment: LNCaP-AR-F876L ANT reporter assay (ARE firefly luciferase, antagonist mode); details: for Emax: read-out: LNCaP-AR-F876L ANT MAX % Inh; for IC50: read-out: LNCaP-AR-F876L ANT pIC50 (converted)
T1 construct: expressed in transfected cells; host or cells: LNCaP (LNCaP F876L)
T1 sequence (P10275 1-920 F877L): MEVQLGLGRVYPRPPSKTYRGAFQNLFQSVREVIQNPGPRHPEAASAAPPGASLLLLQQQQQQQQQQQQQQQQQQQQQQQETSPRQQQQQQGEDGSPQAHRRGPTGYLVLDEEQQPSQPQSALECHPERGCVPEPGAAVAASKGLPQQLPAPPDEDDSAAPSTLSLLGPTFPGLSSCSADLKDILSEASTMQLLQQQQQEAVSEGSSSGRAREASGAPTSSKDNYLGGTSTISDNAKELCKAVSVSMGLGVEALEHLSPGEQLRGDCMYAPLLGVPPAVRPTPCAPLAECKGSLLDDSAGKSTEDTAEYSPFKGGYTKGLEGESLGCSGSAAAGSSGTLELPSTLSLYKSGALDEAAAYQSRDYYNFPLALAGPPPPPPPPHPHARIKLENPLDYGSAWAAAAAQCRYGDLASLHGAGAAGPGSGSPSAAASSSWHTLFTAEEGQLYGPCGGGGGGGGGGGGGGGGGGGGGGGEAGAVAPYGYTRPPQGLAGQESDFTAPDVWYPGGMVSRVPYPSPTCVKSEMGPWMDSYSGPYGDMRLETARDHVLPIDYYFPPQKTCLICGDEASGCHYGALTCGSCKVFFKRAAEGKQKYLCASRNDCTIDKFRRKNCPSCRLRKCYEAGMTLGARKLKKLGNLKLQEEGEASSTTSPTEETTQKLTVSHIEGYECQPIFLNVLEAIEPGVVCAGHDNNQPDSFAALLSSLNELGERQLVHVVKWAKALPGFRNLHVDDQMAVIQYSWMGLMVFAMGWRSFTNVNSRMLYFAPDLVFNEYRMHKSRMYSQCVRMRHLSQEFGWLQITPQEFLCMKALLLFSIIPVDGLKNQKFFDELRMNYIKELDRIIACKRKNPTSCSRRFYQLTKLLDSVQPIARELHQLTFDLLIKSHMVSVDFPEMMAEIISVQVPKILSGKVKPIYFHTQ
Procedure: (§1) A stable pooled-population cell line was generated using puromycin (Life Technologies) selection at 1:10,000 v/v. The protocol below was used for both cell lines and for testing of the compounds of Formula (I) of the present invention.
(§2) LNCaP cells were grown to about 80% confluence, media removed and cells rinsed in Hank's balanced salt solution prior to separation from the plate with 0.05% Trypsin EDTA. Cells were lifted and trypsin negated in complete CSS (charcoal stripped serum) culture media. […] Agonist challenge was at 400 pM for WT assay and 600 pM for F876L assay. Plates containing cells and compounds herein were incubated for a further 20-24 hours at 37° C., 5% CO2 before addition of 40 μL/well of Steady-Glo Luciferase Assay System Reagent (Promega# E2520). After 1 h, plates were read for luminescence on a BMG Pherastar.
(§3) EC/IC50 calculations were achieved utilizing calculated RLU data and data fitting macros. Data were fit using least-squares methods to the following formula: […]

[2] = molecular target: T2, wild-type Androgen Receptor (AR-wt) (Homo sapiens, UniProt P10275); experiment: LNCaP-AR-wt AG reporter assay (ARE firefly luciferase, agonist mode); details: for Emax: read-out: LNCaP-AR-wt AG MAX % Stim; for EC50: agonist mode, −Log10(EC50 [Molar]), read-out: LNCaP-AR-wt AG pEC50 (converted)
T2 construct: expressed in transfected cells; host or cells: LNCaP (LNCaP AR (cs))
T2 sequence (P10275 1-920): T1 sequence (P10275 1-920 F877L) with L877F
Procedure: as §1, §2, §3

[3] = molecular target: T2, wild-type Androgen Receptor (AR-wt); experiment: LNCaP-AR-wt ANT reporter assay (ARE firefly luciferase, antagonist mode); details: for IC50: antagonist mode, 400 pM R-1881 challenge, −Log10(IC50 [Molar]), read-out: LNCaP-AR-wt ANT pIC50 (converted); for Emax: read-out: LNCaP-AR-wt ANT MAX % Inh
Procedure: as §1, §2, §3

[4] = molecular target: T1, F876L mutant Androgen Receptor (AR-F876L); experiment: LNCaP-AR-F876L AG reporter assay (ARE firefly luciferase, agonist mode); details: for Emax: read-out: LNCaP-AR-F876L AG MAX % Stim; for EC50: agonist mode, −Log10(EC50 [Molar]), read-out: LNCaP-AR-F876L AG pEC50 (converted)
Procedure: as §1, §2, §3

[5] = maximum % inhibition of R1881 control response over tested concentration range
[6] = maximum % stimulation (agonist response) over tested concentration range

| Compound | Emax [1] [%] | IC50 [1] [µM] | pEC50 [2] | Emax [2] [%] | IC50 [3] [µM] | Emax [3] [%] | pEC50 [4] | Emax [4] [%] | Emax [1, 5] [%] | EC50 [2] [µM] | Emax [2, 6] [%] | Emax [3, 5] [%] | EC50 [4] [µM] | Emax [4, 6] [%] |
| --- | --- | --- | --- | --- | --- | --- | --- | --- | --- | --- | --- | --- | --- | --- |
| N#Cc1ncc(N2C(=O)C3(CCC3)N(c3ccc4ccncc4c3)C2=S)cc1C(F)(F)F [Cpd 7, 5-[8-(7-isoquinolyl)-5-oxo-7-thioxo-6,8-diazaspiro[3.4]octan-6-yl]-3-(trifluoromethyl)pyridine-2-carbonitrile] | 100 | 0.234 | < 4.82 | -0.2 | 0.417 | 101 | < 4.82 | 0 |  |  |  |  |  |  |
| N#Cc1ncc(N2C(=O)C3(CCC3)N(c3ccc(C(=O)NCCCc4ccccc4)c(F)c3)C2=S)cc1C(F)(F)F [Cpd 57, 4-[6-[6-cyano-5-(trifluoromethyl)-3-pyridyl]-5-oxo-7-thioxo-6,8-diazaspiro[3.4]octan-8-yl]-2-fluoro-N-(3-phenylpropyl)benzamide] | 95.5 | 0.479 | < 4.82 | 0 | 0.324 | 99 | < 4.82 | 0.5 |  |  |  |  |  |  |
| Cc1cc(N2C(=O)C3(CCC3)N(c3ccc(OC4CCNCC4)cc3)C2=S)cnc1C#N [Cpd 83, 3-methyl-5-[5-oxo-8-[4-(4-piperidyloxy)phenyl]-7-thioxo-6,8-diazaspiro[3.4]octan-6-yl]pyridine-2-carbonitrile] |  | 1 |  |  | 2.24 |  |  |  | 99.5 | > 15.1 | 0.1 | 98.8 | > 15.1 | 0.5 |
| COc1cc(F)ccc1N1C(=S)N(c2cnc(C#N)c(C(F)(F)F)c2)C(=O)C12CCC2 [Cpd 94, 5-[8-(4-fluoro-2-methoxy-phenyl)-5-oxo-7-thioxo-6,8-diazaspiro[3.4]octan-6-yl]-3-(trifluoromethyl)pyridine-2-carbonitrile] |  | 0.631 |  |  | 0.724 |  |  |  | 99.2 | > 15.1 | 6 | 95 | > 15.1 | 1.5 |
| Cc1cc(N2C(=O)C3(CCC3)N(c3ccc(C(=O)Nc4ccc(Cl)cc4)c(F)c3)C2=S)cnc1C#N [Cpd 74, N-(4-chlorophenyl)-4-[6-(6-cyano-5-methyl-3-pyridyl)-5-oxo-7-thioxo-6,8-diazaspiro[3.4]octan-8-yl]-2-fluoro-benzamide] |  | 0.759 |  |  | 1.15 |  |  |  | 93.8 | > 15.1 | 0.6 | 94.1 | > 15.1 | 1 |
| Cc1cc(N2C(=O)C3(CCC3)N(c3ccc(-c4cncnc4)cc3)C2=S)cnc1C#N [Cpd 93, 3-methyl-5-[5-oxo-8-(4-pyrimidin-5-ylphenyl)-7-thioxo-6,8-diazaspiro[3.4]octan-6-yl]pyridine-2-carbonitrile] | 100 | 0.234 | < 4.82 | 0.9 | 0.407 | 100 | < 4.82 | 0.8 |  |  |  |  |  |  |
| Cc1cc(N2C(=O)C3(CCC3)N(c3ccc(OC4CCOCC4)cc3)C2=S)cnc1C#N [Cpd 87, 3-methyl-5-[5-oxo-8-(4-tetrahydropyran-4-yloxyphenyl)-7-thioxo-6,8-diazaspiro[3.4]octan-6-yl]pyridine-2-carbonitrile] | 99.7 | 0.288 | < 4.82 | 1.1 |  |  | < 4.82 | 0.9 |  |  |  |  |  |  |
| N#Cc1ncc(N2C(=O)C3(CCC3)N(c3ccc(C(=O)NCCc4ccccc4)c(F)c3)C2=S)cc1C(F)(F)F [Cpd 42, 4-[6-[6-cyano-5-(trifluoromethyl)-3-pyridyl]-5-oxo-7-thioxo-6,8-diazaspiro[3.4]octan-8-yl]-2-fluoro-N-phenethyl-benzamide] |  |  |  |  | 0.245 |  |  |  |  | > 15.1 | 0.3 | 100 | > 15.1 | 0 |
